Laboratory results as given in US11365199B2, “Pyrazole compounds as modulators of FSHR and uses thereof” (Merck Patent GmbH, priority 2013, dated 2022).

Target: T1, FSHR (Homo sapiens, UniProt P23945)
T1 construct: expressed in transfected cells; host or cells: CHO (Cho-FSHR-LUC-1-1-43)
T1 sequence (P23945 18-695): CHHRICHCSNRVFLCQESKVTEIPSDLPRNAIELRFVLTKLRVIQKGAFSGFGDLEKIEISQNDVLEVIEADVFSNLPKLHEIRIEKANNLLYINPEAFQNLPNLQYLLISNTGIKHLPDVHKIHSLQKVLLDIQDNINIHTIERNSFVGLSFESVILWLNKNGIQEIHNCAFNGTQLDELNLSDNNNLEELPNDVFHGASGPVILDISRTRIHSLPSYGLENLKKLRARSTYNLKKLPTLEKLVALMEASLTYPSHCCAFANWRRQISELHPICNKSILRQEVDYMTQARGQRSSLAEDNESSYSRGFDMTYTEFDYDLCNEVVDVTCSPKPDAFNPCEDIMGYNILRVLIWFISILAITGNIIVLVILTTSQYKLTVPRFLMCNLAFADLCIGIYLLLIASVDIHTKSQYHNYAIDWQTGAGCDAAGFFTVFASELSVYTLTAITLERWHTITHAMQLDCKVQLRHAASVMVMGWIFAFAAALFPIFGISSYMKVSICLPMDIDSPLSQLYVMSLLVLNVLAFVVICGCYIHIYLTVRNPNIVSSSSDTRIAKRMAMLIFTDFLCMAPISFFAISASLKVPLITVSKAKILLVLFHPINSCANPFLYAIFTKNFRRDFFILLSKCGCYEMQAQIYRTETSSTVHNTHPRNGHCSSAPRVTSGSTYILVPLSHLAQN
Assay: EC50 of cyclic AMP production in CHO FSHR cells + EC20 FSH (Assay A)
Type: cell-based
Conditions: CHO FSHR cells + EC20 FSH, cAMP HTRF; read-out: Assay A: EC50 of cyclic AMP production
Summary of the method: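 cAMP HTRF read-out (665 nm/620 nm ratio) after 1 h at 37° C of Cho-FSHR-LUC cells treated with serially diluted test compound plus EC20 FSH ([…]) and IBMX (final 200 μM). Responses given as percent of maximal FSH-standard effect.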

SMILES	EC50 [nM]
COc1cc2c(cc1-c1ccn(C)n1)-c1c(c(C(=O)N3CCN(C(=O)OC(C)(C)C)CC34CC4)nn1-c1ccsc1)CO2 [Compound 158, 4-[7-Methoxy-8-(1-methyl-1H-pyrazol-3-yl)-1-thiophen-3-yl-1,4-dihydro-chromeno[4,3-c]pyrazole-3-carbonyl]-4,7-diaza-spiro[2.5]octane-7-carboxylic acid tert-butyl ester]	1000 to 5000
COc1cc2c(cc1-c1ccn(C)c1)-c1c(c(C(=O)NCC3(O)COC3)nn1-c1ccsc1)CO2 [Compound 164, 7-Methoxy-8-(1-methyl-1H-pyrrol-3-yl)-1-thiophen-3-yl-1,4-dihydro-chromeno[4,3-c]pyrazole-3-carboxylic acid (3-hydroxy-oxetan-3-ylmethyl)-amide]	1000 to 5000
COc1cc2c(cc1-c1ccn(C)n1)-c1c(c(C(=O)NCC3(O)COC3)nn1-c1ccsc1)CO2 [Compound 165, 7-Methoxy-8-(1-methyl-1H-pyrazol-3-yl)-1-thiophen-3-yl-1,4-dihydro-chromeno[4,3-c]pyrazole-3-carboxylic acid (3-hydroxy-oxetan-3-ylmethyl)-amide]	> 5000
COc1cc2c(cc1-c1ccn(C)n1)-c1c(c(C(=O)N[C@H]3CC[C@@H](O)C3)nn1-c1ccsc1)CO2 [Compound 172, 7-Methoxy-8-(1-methyl-1H-pyrazol-3-yl)-1-thiophen-3-yl-1,4-dihydro-chromeno[4,3-c]pyrazole-3-carboxylic acid ((1S,3R)-3-hydroxy-cyclopentyl)-amide]	> 5000
COc1cc2c(cc1-c1ccn(C)c1)-c1c(c(C(=O)N[C@H]3CC[C@@H](O)C3)nn1-c1ccsc1)CO2 [Compound 173, 7-Methoxy-8-(1-methyl-1H-pyrrol-3-yl)-1-thiophen-3-yl-1,4-dihydro-chromeno[4,3-c]pyrazole-3-carboxylic acid ((1S,3R)-3-hydroxy-cyclopentyl)-amide]	> 5000
COc1cc2c(cc1-c1ccn(C)c1)-c1c(c(C(=O)NC(C)(CO)CO)nn1-c1ccsc1)CO2 [Compound 179, 7-methoxy-8-(1-methyl-1H-pyrrol-3-yl)-1-thiophen-3-yl-1,4-dihydro-chromeno[4,3-c]pyrazole-3-carboxylic acid (2-hydroxy-1-hydroxymethyl-1-methyl-ethyl)-amide]	100 to 1000
COc1cc2c(cc1-c1ccn(C)n1)-c1c(c(C(=O)O[C@H]3CC[C@H](N)C3)nn1-c1ccsc1)CO2 [Compound 180, 7-Methoxy-8-(1-methyl-1H-pyrazol-3-yl)-1-thiophen-3-yl-1,4-dihydro-chromeno[4,3-c]pyrazole-3-carboxylic Acid (1S,3S)-3-amino-cyclopentyl Ester]	< 100
COc1cc2c(cc1-c1ccn(C)c1)-c1c(c(C(=O)O[C@H]3CC[C@H](N)C3)nn1-c1ccsc1)CO2 [Compound 181, 7-Methoxy-8-(1-methyl-1H-pyrrol-3-yl)-1-thiophen-3-yl-1,4-dihydro-chromeno[4,3-c]pyrazole-3-carboxylic Acid (1S,3S)-3-amino-cyclopentyl Ester]	< 100
COc1cc2c(cc1-c1ccn(C)n1)-c1c(c(C(=O)NC(C)(CO)CO)nn1-c1ccsc1)CO2 [Compound 185, 7-Methoxy-8-(1-methyl-1H-pyrazol-3-yl)-1-thiophen-3-yl-1,4-dihydro-chromeno[4,3-c]pyrazole-3-carboxylic Acid (2-hydroxy-1-hydroxymethyl-1-methyl-ethyl)-amide]	100 to 1000
COc1cc2c(cc1S(=O)(=O)C(C)C)-c1c(c(C(=O)NC3(CO)COC3)nn1-c1ccsc1)CO2 [Compound 187, 7-Methoxy-8-(propane-2-sulfonyl)-1-thiophen-3-yl-1,4-dihydro-chromeno[4,3-c]pyrazole-3-carboxylic Acid (3-hydroxymethyl-oxetan-3-yl)-amide]	> 5000
COc1cc2c(cc1S(=O)(=O)C(C)C)-c1c(c(C(=O)NC3(C)COC3)nn1-c1ccsc1)CO2 [Compound 188, 7-Methoxy-8-(propane-2-sulfonyl)-1-thiophen-3-yl-1,4-dihydro-chromeno[4,3-c]pyrazole-3-carboxylic Acid (3-methyl-oxetan-3-yl)-amide]	> 5000
COc1cc2c(cc1-c1cnn(CCN(C)C)c1)-c1c(c(C(=O)N3CCOCC3(C)C)nn1-c1ccsc1)CO2 [Compound 203, {8-[1-(2-Dimethylamino-ethyl)-1H-pyrazol-4-yl]-7-methoxy-1-thiophen-3-yl-1,4-dihydro-chromeno[4,3-c]pyrazol-3-yl}-(3,3-dimethyl-morpholin-4-yl)-methanone]	100 to 1000

The next lines start with the values.

EC50 [nM]	SMILES
1000 to 5000	COc1cc2c(cc1CN)-c1c(c(C(=O)N3CCOCC3(C)C)nn1-c1ccsc1)CO2 [Compound 166, (8-Aminomethyl-7-methoxy-1-thiophen-3-yl-1,4-dihydro-chromeno[4,3-c]pyrazol-3-yl)-(3,3-dimethyl-morpholin-4-yl)-methanone]
100 to 1000	COc1cc2c(cc1-c1ccn(C)n1)-c1c(c(C(=O)N3CCNCC34CC4)nn1-c1ccsc1)CO2 [Compound 171, (4,7-Diaza-spiro[2.5]oct-4-yl)-[7-methoxy-8-(1-methyl-1H-pyrazol-3-yl)-1-thiophen-3-yl-1,4-dihydro-chromeno[4,3-c]pyrazol-3-yl]-methanone]
100 to 1000	COc1cc2c(cc1-c1ccn(C)n1)-c1c(c(C(=O)N3CCCC34COC4)nn1-c1ccsc1)CO2 [Compound 174, [7-Methoxy-8-(1-methyl-1H-pyrazol-3-yl)-1-thiophen-3-yl-1,4-dihydro-chromeno[4,3-c]pyrazol-3-yl]-(2-oxa-5-aza-spiro[3.4]oct-5-yl)-methanone]
< 100	COc1cc2c(cc1-c1ccn(C)c1)-c1c(c(C(=O)N3CCCC3(C)CO)nn1-c1ccsc1)CO2 (stereo not drawn) [Compound 176, (2-Hydroxymethyl-2-methyl-pyrrolidin-1-yl)-[7-methoxy-8-(1-methyl-1H-pyrrol-3-yl)-1-thiophen-3-yl-1,4-dihydro-chromeno[4,3-c]pyrazol-3-yl]-methanone]
1000 to 5000	[2H]C([2H])([2H])O[C@@H]1CC[C@H](N(C(=O)c2nn(-c3ccsc3)c3c2COc2cc(OC)c(-c4ccn(C)n4)cc2-3)C([2H])([2H])[2H])C1 [Compound 177]
1000 to 5000	[2H]C([2H])([2H])O[C@@H]1CC[C@H](N(C(=O)c2nn(-c3ccsc3)c3c2COc2cc(OC)c(-c4ccn(C)c4)cc2-3)C([2H])([2H])[2H])C1 [Compound 178]
100 to 1000	[2H]C([2H])([2H])OCC1(C)CCCN1C(=O)c1nn(-c2ccsc2)c2c1COc1cc(OC)ccc1-2 (stereo not drawn) [Compound 183, (2-Methoxymethyl-2-methyl-pyrrolidin-1-yl)-(7-methoxy-1-thiophen-3-yl-1,4-dihydro-chromeno[4,3-c]pyrazol-3-yl)-methanone]
< 100	COc1cc2c(cc1-c1cnn(CCC#N)c1)-c1c(c(C(=O)N3CCOCC3(C)C)nn1-c1ccsc1)CO2 [Compound 190, 3-{4-[3-(3,3-Dimethyl-morpholine-4-carbonyl)-7-methoxy-1-thiophen-3-yl-1,4-dihydro-chromeno[4,3-c]pyrazol-8-yl]-pyrazol-1-yl}-propionitrile]
< 100	COc1cc2c(cc1-c1cnn(C(C)C)c1)-c1c(c(C(=O)N3CCOCC3(C)C)nn1-c1ccsc1)CO2 [Compound 191, (3,3-Dimethyl-morpholin-4-yl)-[8-(1-isopropyl-1H-pyrazol-4-yl)-7-methoxy-1-thiophen-3-yl-1,4-dihydro-chromeno[4,3-c]pyrazol-3-yl]-methanone]
< 100	COc1cc2c(cc1-c1cnn(CC(C)C)c1)-c1c(c(C(=O)N3CCOCC3(C)C)nn1-c1ccsc1)CO2 [Compound 192, (3,3-Dimethyl-morpholin-4-yl)-[8-(1-isobutyl-1H-pyrazol-4-yl)-7-methoxy-1-thiophen-3-yl-1,4-dihydro-chromeno[4,3-c]pyrazol-3-yl]-methanone]
> 5000	[2H]C([2H])([2H])C(C(=O)c1nn(-c2ccsc2)c2c1COc1cc(OC)c(-c3ccn(C)n3)cc1-2)C1(C)CNC1 (stereo not drawn) [Compound 193]
< 100	COc1cc2c(cc1-c1ccn(C(C)C)n1)-c1c(c(C(=O)N3CCOCC3(C)C)nn1-c1ccsc1)CO2 [Compound 195, (3,3-Dimethyl-morpholin-4-yl)-[8-(1-isopropyl-1H-pyrazol-3-yl)-7-methoxy-1-thiophen-3-yl-1,4-dihydro-chromeno[4,3-c]pyrazol-3-yl]-methanone]
> 5000	[2H]C([2H])([2H])O[C@H]1CC[C@H](N(C(=O)c2nn(-c3ccsc3)c3c2COc2cc(OC)c(-c4ccn(C)n4)cc2-3)C([2H])([2H])[2H])C1 [Compound 196]
1000 to 5000	[2H]C([2H])([2H])O[C@H]1CC[C@H](N(C(=O)c2nn(-c3ccsc3)c3c2COc2cc(OC)c(-c4ccn(C)c4)cc2-3)C([2H])([2H])[2H])C1 [Compound 197]
< 100	[2H]C([2H])([2H])N(C(=O)c1nn(-c2ccsc2)c2c1COc1cc(OC)c(S(=O)(=O)C(C)C)cc1-2)C1(C)COC1 [Compound 199]
